US7381731B2, “Pharmaceutical composition comprising citrulline” (Angiogenix, Inc., priority 1994, dated 2008)

Tests used:
y^+ transporter = assay: y+ transport of [3H]-LA in cells exposed to NOS agonists or NO donors, sodium-free uptake buffer; type: cell-based, bovine; details: for maximum inhibition of y+ transport: FIG. 16; for inhibition of L-arginine transport: data not shown; for increase of [3H]-LA uptake: Ach 5 μM; for increase of y+ transport of L-arginine / increase of y+ transporter activity from control: SP 1 μM
Protocol: Effect of NOS agonists on cellular uptake of LA.
Effect of NO donors on cellular uptake of LA.
In order to confirm whether the reduction in cellular uptake of [^3H]-LA was due to NO released from SNAP, experiments were performed using another NO donor, DPTA-NONOate. Unlike SNAP, which donates large amounts of NO over a short time period (t1/2˜10 minutes), the use of DPTA-NONOate allows for a slower (t1/2˜5 hours), more sustained release of NO that is constant over time.

[1] = tested on: bovine aortic endothelial cells (BAEC); assay: Superoxide anion (O2*—) formation in BAEC; type: cell-based; details: for increase of O2*— production above basal levels: 1 μM; for increase of O2*— production above basal levels / prevention of basal production of O2*—: 60 minute period; for inhibition of O2*— production induced by A-23187: A-23187 1 μM; for inhibition of O2*— production induced by A-23187 / reduction of O2*— induced by SP: concurrent treatment 5×10^−4M; for reduction of O2*— induced by SP: SP 1 μM; for prevention of basal production of O2*—: supplementation 5×10^−4M
Excerpt: Cellular superoxide anion formation—Effect of NOS agonists on cellular superoxide anion formation.

[2] = tested on: cultured bovine aortic EC; assay: DOX as NOS agonist: NO production by oxyhemoglobin/methemoglobin conversion and NO sensitive electrode; type: cell-based
Protocol: In fact, a wide variety of vasoactive agents (e.g., bradykinin, muscarinic agonists and growth factors) which increase tPA levels are also agonists of nitric oxide synthase (NOS). DOX activity as a NOS agonist was investigated in cultured bovine aortic EC using two methods to assess NO production: conversion of oxyhemoglobin to methamoglobin and a NO sensitive electrode.
For all experiments described herein, human coronary artery endothelial cells (passage 3-5-Clonetics) were maintained at 37°, […] and 5% CO2 in Medium 199 (M199) supplemented with 5% fetal bovine serum (FBS, Hyclone), 10% iron supplemented FBS (Hyclone), thymidine ([…]), penicillin G (100 U mL^−1) and streptomycin (100 μmL^−1). […] Acetylcholine, an eNOS agonist, was used in all experiments as the positive control at concentrations of 10^−7 and 10^−6 M.
Nitric Oxide Measurements. Methemoglobin—The effect of DOX on NO production in EC was determined using a photometric assay for conversion of oxyhemoglobin to methemoglobin. […] Perfusate is then directed into a flow-through cuvette in a dual wavelength spectrophotometer and change in absorbency (415/405 nm) is measured. Experimental stimulation was carried out by 3 min infusion periods of DOX added to buffer perfusion to yield final concentrations of 10^−7 and 10^−6 M. For analysis, we determined the area under the curve for the change in absorbency response/min caused by DOX assuming a one to one correspondence for NO and metHb production, the known stoichiometric balance for this reaction. NO production was measured with a NO meter connected to a polargraphic NO electrode as previously described. The NO sensor probe will be inserted vertically into 24-well plates containing confluent EC such that the tip of the electrode is submerged 2 mm under the surface of medium (above −1 ml). The reaction was initiated when desired concentrations of DOX are added to the well. Calibrations were performed with S-nitroso-acetyl-penicillamine.

[3] = tested on: bovine aortic endothelial cells (BAEC); assay: NO production by endothelial cells on beads, photometric oxyhemoglobin to methemoglobin assay; type: cell-based
Excerpt: NO oxidize; oxyhemoglobin (HbO2) to methemoglobin (metHb) in the following reaction HbO2+NO−metHb+NO3. The amount of NO produced by endothelial cells was quantified by measuring the change in absorbance as HbO2 oxidizes to metHb. Oxyhemoglobin has a absorbance peak at 415 nm, while methb has a 406 nm absorbance peak. By subtracting the absorbance of metHb from HbO2, the concentration of NO can be assessed. The general method was patterned after that of Feelisch et al., (Biochem. and Biophy. Res. Comm. 1991; 180, Nc I:286-293).
The effects of pravastatin on activity of endothelial cells in producing NO were compared with those of actetylcholine, which is known to specifically stimulate NO production by NOS activity.

With `CC(=O)N[C@@H](C(=O)O)C(C)(C)SN=O` (racemic) [SNAP, s-nitroso-acetyl-penicillamin] the “increase of activity of the y+ transporter” value (y^+ transporter; 200 μM SNAP (0.4 μM NO), ten minutes of exposure) was 37%, the “elevation of activity of the y+ transporter” value (y^+ transporter; 200 μM SNAP, 30 minute exposure) was “not seen” and the “reduction of uptake of [3H]-LA” value (y^+ transporter; 200 μM SNAP, 1 hour) was 22%. The “reduction of uptake of [3H]-LA” value (y^+ transporter; 200 μM SNAP, 2 hour exposure) was 46%, the “reduction of uptake of [3H]-LA” value (y^+ transporter; 200 μM SNAP, 3 hour exposure) was 45% and the “reduction of uptake of [3H]-LA” value (y^+ transporter; 200 μM SNAP, 5 hour exposure) was 36%.

`CNc1ccc2oc(C[C@H]3O[C@@]4(CC[C@H]3C)O[C@H]([C@H](C)C(=O)c3ccc[nH]3)[C@H](C)C[C@H]4C)nc2c1C(=O)O` [A-23187] was tested, and the “increase of O2*— production above basal levels” value [1] was 2.5 fold.

`COc1cc2nc(N3CCN(C(=O)C4COc5ccccc5O4)CC3)nc(N)c2cc1OC` (centres unmarked) [DOX, Doxazosin] was tested, and the “increase in NO production” value ([2]; DOX 10^−7-10^−5 M, dose-related) was 64-145%.

In the case of `NCCCN(CCCN)/[N+]([O-])=N/O` [DPTA-NONOate, dipropylenetriamine NONOate], the “maximum inhibition of y+ transport” value (y^+ transporter; 0.01 μM, 2 hour exposure) was 20%, the “effect on y+ system” value (y^+ transporter; 1 μM DPTA-NONOate (2 μM NO), 15 and 30 min) was “no significant effect” and the “inhibition of L-arginine transport” value (y^+ transporter; 1 μM DPTA-NONOate (2 μM NO), 1 hour exposure) was 22%. For the same compound, the “inhibition of L-arginine transport” value (y^+ transporter; 1 μM DPTA-NONOate (2 μM NO), 2 hour exposure) was 24%, the “inhibition of L-arginine transport” value (y^+ transporter; 1 μM DPTA-NONOate (2 μM NO), 4 hour exposure) was 29% and the “maximum inhibition of y+ transport” value (y^+ transporter; 1 μM, 2 hour exposure) was 24%. For the same compound, the “maximum inhibition of y+ transport” value (y^+ transporter; 10 μM, 2 hour exposure) was 44%.

For `COC(=O)[C@@H](N)CCCNC(=N)N[N+](=O)[O-]` [L-NAME, n-ω-nitro-L-arginine methyl ester], the “inhibition of O2*— production induced by A-23187” value [1] was 58%, the “reduction of O2*— induced by SP” value [1] was 81% and the “prevention of basal production of O2*—” value [1] was 100%. The “block of increase in NO to ACH” value ([2]; ACH 10^−6 M, prior L-NAME) was 86%, the “block of increase in NO to DOX” value ([2]; DOX 10^−6 M, prior L-NAME 5×10^−4 M) was 72% and the “reduction of acetylcholine-induced production of NO” value ([3]; buffer containing L-NAME 10^−3 M) was 80%. The “NO production in response to pravastatin” value ([3]; superfusion with L-NAME 10^−3 M) was “blunted”.

For `N=C(N)NCCC[C@H](N)C(=O)O` [L-arginine], the “inhibition of O2*— production induced by A-23187” value [1] was 60%, the “reduction of O2*— induced by SP” value [1] was 51% and the “prevention of basal production of O2*—” value [1] was “not”. The “accentuation of NO responses to ACH” value ([2]; supplemental L-arginine) was 72%, the “accentuation of NO responses to DOX” value ([2]; supplemental L-arginine 5×10^−4 M) was 65% and the “acetylcholine-elicited production of NO” value ([3]; L-NAME buffer replaced with buffer containing L-arginine 10^−3 M) was “returned to control levels”. The “NO production in response to pravastatin” value ([3]; subsequent perfusion with buffer containing L-arginine 10^−3 M) was “return in NO production to a level above the amount induced by the Pravastatin in control (basis) buffer”.

With `CC(=O)OCC[N+](C)(C)C` [acetylcholine] the “increase of [3H]-LA uptake” value (y^+ transporter; 2 minute exposure) was 22%, the “increase of [3H]-LA uptake” value (y^+ transporter; 15 minute (maximum)) was 27% and the “increase of [3H]-LA uptake” value (y^+ transporter; 30 minutes) was 16%. For the same compound, the “increase of [3H]-LA uptake” value (y^+ transporter; 60 minutes) was 15.5%.

With `CC[C@H](C)C(=O)O[C@H]1C[C@H](O)C=C2C=C[C@H](C)[C@H](CC[C@@H](O)C[C@@H](O)CC(=O)O)[C@H]21` [pravastatin] the “increment in NO response to the 10^−5 M concentration” value ([3]; pravastatin 10^−5 M, larger than that of acetylcholine) was ~3 X.

In the case of substance P [SP], the “increase of O2*— production above basal levels” value [1] was 3.5 fold, the “increase of y+ transport of L-arginine” value (y^+ transporter; 15-minutes exposure) was 24% and the “increase of y+ transport of L-arginine” value (y^+ transporter; 30 minutes) was 24%. For the same compound, the “increase of y+ transport of L-arginine” value (y^+ transporter; 60 minutes) was 21%, the “increase of y+ transporter activity from control” value (“increase … from control” below) (y^+ transporter; 2 hour exposure) was 34% and the “increase … from control” value (y^+ transporter; 3 hour exposure) was 27%. The “increase … from control” value (y^+ transporter; 5 hour exposure) was 21%.
